{"source": "patent US11840686B2", "about": "“Modulation of prekallikrein (PKK) expression” (Ionis Pharmaceuticals, Inc., priority 2013, dated 2023)", "type_in_all_cases": "cell-based", "key": {"human PKK mRNA [1]": {"test_system": "human PKK mRNA", "assay": "Antisense inhibition of human PKK mRNA in HepaRG cells, 1,000 nM, MOE/deoxy/cEt oligonucleotides (Example 3)", "conditions": "Table 28; HepaRG cells, 1,000 nM antisense oligonucleotide; human PKK mRNA", "in_short": "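HepaRG cells at 20,000 per well electroporated with 1,000 nM 16-mer MOE/cEt/deoxy gapmers (phosphorothioate, 5-methylcytosine). After about 24 h, PKK mRNA measured by qRT-PCR with primer probe set RTS3454, normalized to RIBOGREEN total RNA. Reported as percent inhibition versus untreated cells.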"}, "human PKK mRNA [2]": {"test_system": "human PKK mRNA", "assay": "Dose-dependent antisense inhibition of human PKK in HepaRG cells, 0.11-3.00 uM (Example 6)", "experimental": "Cells were plated at a density of 20,000 cells per well and transfected using electroporation with 0.11 μM, 0.33 μM, 1.00 μM, and 3.00 μM concentrations of antisense oligonucleotide. After a treatment period of approximately 16 hours, RNA was isolated from the cells and PKK mRNA levels were measured by quantitative real-time PCR. Human PKK primer probe set RTS3454 was used to measure mRNA levels. PKK mRNA levels were adjusted according to total RNA content, as measured by RIBOGREEN®. The antisense oligonucleotides were tested in a series of experiments that had similar culture conditions.\nThe half maximal inhibitory concentration (IC50) of each oligonucleotide is also presented."}, "human PKK mRNA [3]": {"test_system": "human PKK mRNA", "assay": "Antisense inhibition of human PKK mRNA in HepaRG cells, 5,000 nM (Example 2)", "in_short": "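Percent inhibition of PKK mRNA is reported relative to untreated cells, after adjustment for total RNA by RIBOGREEN. Gapmers of 16–20 nucleosides with 2′-MOE wings were delivered at 5,000 nM by electroporation into HepaRG cells and left for roughly 24 hours before RNA isolation.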"}, "human PKK mRNA [4]": {"test_system": "human PKK mRNA", "assay": "Dose-dependent antisense inhibition of human PKK in HepaRG cells, 0.19-5.00 uM (Example 5)", "conditions": "HepaRG cells; for percent inhibition of PKK at 0.19 μM / percent inhibition of PKK at 0.56 μM / percent inhibition of PKK at 1.67 μM / percent inhibition of PKK at 5.00 μM: electroporation, approximately 16 hours; for percent inhibition of PKK mRNA, 0.19 μM: 0.19 μM antisense oligonucleotide; for percent inhibition of PKK mRNA, 0.56 μM: 0.56 μM antisense oligonucleotide; for percent inhibition of PKK mRNA, 1.67 μM: 1.67 μM antisense oligonucleotide; for percent inhibition of PKK mRNA, 5.00 μM: 5.00 μM antisense oligonucleotide", "in_short": "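HepaRG cells (20,000/well) were electroporated with antisense oligonucleotide at 0.19, 0.56, 1.67 and 5.00 μM and treated for about 16 hours. PKK mRNA was quantified by qRT-PCR with primer probe set RTS3454, normalised to RIBOGREEN total RNA, and IC50 was derived per oligonucleotide.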"}, "[5]": {"conditions": "4 point dose response, Table 37"}, "[6]": {"conditions": "HepaRG cells, 5,000 nM antisense oligonucleotide, 5-10-5 gapmers, Table 16"}}, "note": "Strand notation (5' to 3'): a small letter for the sugar, then the base; units joined by * are phosphorothioate-linked, units joined directly phosphodiester-linked; [ ] holds rarer units or linkages, { } end groups; capitals alone tell only the bases. e = 2'-O-(2-methoxyethyl) (MOE); k = constrained ethyl (cEt); [5mC] = 5-methylcytosine; d = 2'-deoxy (DNA)", "data": [{"substance": "548486 (e[5mC]*eG*kT*dG*dG*dT*dT*dA*dG*d[5mC]*d[5mC]*dT*dG*kA*k[5mC]*eA; antisense) [compound 548486]", "values": [{"measurement": "% inhibition", "setting": "human PKK mRNA [1]", "result": 68, "unit": "%"}, {"measurement": "IC50", "setting": "human PKK mRNA [2]; 0.11-3.00 μM", "result": 400, "unit": "nM"}, {"measurement": "percent inhibition of PKK mRNA, 0.11 μM", "setting": "human PKK mRNA [2]; electroporation, 0.11 μM, approx. 16 hours, relative to untreated control cells", "result": 20, "unit": "%"}, {"measurement": "percent inhibition of PKK mRNA, 0.33 μM", "setting": "human PKK mRNA [2]; electroporation, 0.33 μM, approx. 16 hours, relative to untreated control cells", "result": 48, "unit": "%"}, {"measurement": "percent inhibition of PKK mRNA, 1.00 μM", "setting": "human PKK mRNA [2]; electroporation, 1.00 μM, approx. 16 hours, relative to untreated control cells", "result": 77, "unit": "%"}, {"measurement": "percent inhibition of PKK mRNA, 3.00 μM", "setting": "human PKK mRNA [2]; electroporation, 3.00 μM, approx. 16 hours, relative to untreated control cells", "result": 92, "unit": "%"}]}, {"substance": "546403 (e[5mC]*e[5mC]*eA*eT*eG*dA*dA*d[5mC]*dA*dT*d[5mC]*d[5mC]*dT*dA*dT*e[5mC]*e[5mC]*eG*eT*eG; antisense) [compound 546403]", "values": [{"measurement": "% inhibition", "setting": "human PKK mRNA [3]; HepaRG cells, electroporation, 5,000 nM antisense oligonucleotide, approx. 24 hours, primer probe set RTS3454, relative to untreated control cells, Table 12", "result": 83, "unit": "%"}, {"measurement": "percent inhibition of PKK at 0.19 μM", "setting": "human PKK mRNA [4]; Table 38", "result": 0, "unit": "%"}, {"measurement": "percent inhibition of PKK at 0.56 μM", "setting": "human PKK mRNA [4]; Table 38", "result": 20, "unit": "%"}, {"measurement": "percent inhibition of PKK at 1.67 μM", "setting": "human PKK mRNA [4]; Table 38", "result": 37, "unit": "%"}, {"measurement": "percent inhibition of PKK at 5.00 μM", "setting": "human PKK mRNA [4]; Table 38", "result": 41, "unit": "%"}, {"measurement": "IC50", "setting": "human PKK mRNA [4]; 4 point dose response, Table 38", "result": "> 5000", "unit": "nM"}]}, {"substance": "547731 (eG*eG*eA*eT*eT*dG*dG*dT*dG*dG*dT*dG*dG*dG*dA*eT*eT*eG*eG*eT; antisense) [compound 547731]", "values": [{"measurement": "% inhibition", "setting": "human PKK mRNA [3]; HepaRG cells, 5,000 nM antisense oligonucleotide, 5-10-5 gapmers, Table 17", "result": 49, "unit": "%"}, {"measurement": "percent inhibition of PKK at 0.19 μM", "setting": "human PKK mRNA [4]; Table 37", "result": 0, "unit": "%"}, {"measurement": "percent inhibition of PKK at 0.56 μM", "setting": "human PKK mRNA [4]; Table 37", "result": 0, "unit": "%"}, {"measurement": "percent inhibition of PKK at 1.67 μM", "setting": "human PKK mRNA [4]; Table 37", "result": 17, "unit": "%"}, {"measurement": "percent inhibition of PKK at 5.00 μM", "setting": "human PKK mRNA [4]; Table 37", "result": 56, "unit": "%"}, {"measurement": "IC50", "setting": "human PKK mRNA [4]; [5]", "result": 5000, "unit": "nM"}]}, {"substance": "546847 (eA*e[5mC]*eT*eG*eT*d[5mC]*d[5mC]*dT*dA*dT*dA*dT*d[5mC]*dA*d[5mC]*eT*eG*eT*e[5mC]*e[5mC]; antisense) [compound 546847]", "values": [{"measurement": "% inhibition", "setting": "human PKK mRNA [3]; Table 13, human PKK mRNA in HepaRG cells, 5-10-5 gapmers", "result": 88, "unit": "%"}, {"measurement": "percent inhibition of PKK at 0.19 μM", "setting": "human PKK mRNA [4]; Table 37", "result": 39, "unit": "%"}, {"measurement": "percent inhibition of PKK at 0.56 μM", "setting": "human PKK mRNA [4]; Table 37", "result": 57, "unit": "%"}, {"measurement": "percent inhibition of PKK at 1.67 μM", "setting": "human PKK mRNA [4]; Table 37", "result": 75, "unit": "%"}, {"measurement": "percent inhibition of PKK at 5.00 μM", "setting": "human PKK mRNA [4]; Table 37", "result": 89, "unit": "%"}, {"measurement": "IC50", "setting": "human PKK mRNA [4]; [5]", "result": 400, "unit": "nM"}, {"measurement": "percent inhibition of PKK mRNA, 0.19 μM", "setting": "human PKK mRNA [4]", "result": 14, "unit": "%"}, {"measurement": "percent inhibition of PKK mRNA, 0.56 μM", "setting": "human PKK mRNA [4]", "result": 44, "unit": "%"}, {"measurement": "percent inhibition of PKK mRNA, 1.67 μM", "setting": "human PKK mRNA [4]", "result": 83, "unit": "%"}, {"measurement": "percent inhibition of PKK mRNA, 5.00 μM", "setting": "human PKK mRNA [4]", "result": 95, "unit": "%"}, {"measurement": "IC50", "setting": "human PKK mRNA [4]; 0.19-5.00 μM", "result": 700, "unit": "nM"}]}, {"substance": "546939 (eG*e[5mC]*e[5mC]*eA*eT*d[5mC]*dT*dG*dG*dT*dT*dA*dG*d[5mC]*d[5mC]*eT*e[5mC]*e[5mC]*eG*eA; antisense) [compound 546939]", "values": [{"measurement": "% inhibition", "setting": "human PKK mRNA [3]; [6]", "result": 89, "unit": "%"}, {"measurement": "percent inhibition of PKK at 0.19 μM", "setting": "human PKK mRNA [4]; Table 37", "result": 1, "unit": "%"}, {"measurement": "percent inhibition of PKK at 0.56 μM", "setting": "human PKK mRNA [4]; Table 37", "result": 66, "unit": "%"}, {"measurement": "percent inhibition of PKK at 1.67 μM", "setting": "human PKK mRNA [4]; Table 37", "result": 86, "unit": "%"}, {"measurement": "percent inhibition of PKK at 5.00 μM", "setting": "human PKK mRNA [4]; Table 37", "result": 90, "unit": "%"}, {"measurement": "IC50", "setting": "human PKK mRNA [4]; [5]", "result": 600, "unit": "nM"}, {"measurement": "percent inhibition of PKK mRNA, 0.19 μM", "setting": "human PKK mRNA [4]", "result": 16, "unit": "%"}, {"measurement": "percent inhibition of PKK mRNA, 0.56 μM", "setting": "human PKK mRNA [4]", "result": 71, "unit": "%"}, {"measurement": "percent inhibition of PKK mRNA, 1.67 μM", "setting": "human PKK mRNA [4]", "result": 96, "unit": "%"}, {"measurement": "percent inhibition of PKK mRNA, 5.00 μM", "setting": "human PKK mRNA [4]", "result": 95, "unit": "%"}, {"measurement": "IC50", "setting": "human PKK mRNA [4]; 0.19-5.00 μM", "result": 400, "unit": "nM"}]}, {"substance": "547718 (eA*eT*eA*eA*eA*dG*dT*dG*d[5mC]*dG*dA*dT*dT*dA*dA*eG*e[5mC]*e[5mC]*e[5mC]*e[5mC]; antisense) [compound 547718]", "values": [{"measurement": "% inhibition", "setting": "human PKK mRNA [3]; [6]", "result": 86, "unit": "%"}, {"measurement": "percent inhibition of PKK at 0.19 μM", "setting": "human PKK mRNA [4]; Table 39", "result": 36, "unit": "%"}, {"measurement": "percent inhibition of PKK at 0.56 μM", "setting": "human PKK mRNA [4]; Table 39", "result": 12, "unit": "%"}, {"measurement": "percent inhibition of PKK at 1.67 μM", "setting": "human PKK mRNA [4]; Table 39", "result": 69, "unit": "%"}, {"measurement": "percent inhibition of PKK at 5.00 μM", "setting": "human PKK mRNA [4]; Table 39", "result": 74, "unit": "%"}, {"measurement": "IC50", "setting": "human PKK mRNA [4]; 4 point dose response, Table 39", "result": 1600, "unit": "nM"}]}]}
